Laboratory results reported in BigSolDB 2.1.

O=C(O)CCCC(=O)O
Conditions	solubility (mole fraction)
in cyclohexanone, 294.15 K	0.153
in cyclohexanone, 298.45 K	0.167
in cyclohexanone, 302.45 K	0.181
in cyclohexanone, 307.15 K	0.2
in cyclohexanone, 312.45 K	0.238
in cyclohexanone, 317.05 K	0.27
in cyclohexanone, 321.75 K	0.309
in cyclohexanone, 326.35 K	0.351
in cyclohexanone, 331.55 K	0.401
in cyclohexanone, 335.25 K	0.437
in propionic acid, 289.55 K	0.238
in propionic acid, 294.15 K	0.272
in propionic acid, 302.15 K	0.337
in propionic acid, 305.65 K	0.365
in propionic acid, 309.15 K	0.395
in propionic acid, 312.85 K	0.42
in propionic acid, 316.15 K	0.447
in propionic acid, 319.65 K	0.474
in propionic acid, 323.65 K	0.509
in propionic acid, 332.15 K	0.587
in ε-caprolactone, 286.25 K	0.124
in ε-caprolactone, 291.55 K	0.153
in ε-caprolactone, 296.15 K	0.183
in ε-caprolactone, 300.25 K	0.214
in ε-caprolactone, 304.45 K	0.245
in ε-caprolactone, 308.55 K	0.274
in ε-caprolactone, 312.45 K	0.304
in ε-caprolactone, 316.05 K	0.334
in ε-caprolactone, 320.25 K	0.364
in ε-caprolactone, 325.25 K	0.402
